{"source": "patent US20260176289A1", "about": "“SMALL MOLECULE INHIBITORS OF KRAS PROTEINS” (Merck Sharp & Dohme LLC, priority 2022, published 2026)", "key": {"[1]": {"biological_target": "KRAS-WT (Homo sapiens, UniProt P01116)", "sequence (P01116 with tags, fused parts or gaps isoform P01116-2)": "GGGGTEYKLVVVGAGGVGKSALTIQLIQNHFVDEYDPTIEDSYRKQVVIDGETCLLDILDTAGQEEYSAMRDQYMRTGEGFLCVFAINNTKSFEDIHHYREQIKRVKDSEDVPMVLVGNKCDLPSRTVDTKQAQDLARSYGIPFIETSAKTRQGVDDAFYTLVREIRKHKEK", "assay": "SOS-catalyzed nucleotide exchange assay (Procedure A, TR-FRET), KRAS-WT", "type": "biochemical", "details": "nucleotide exchange, read-out: KRAS WT GNE IC50", "outline": "(§1)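 TR-FRET readout (520/495 nm) of SOS-driven exchange of Bodipy-GDP for unlabeled GTP (3 mM) on biotinylated, Tb-streptavidin-bound RAS, after 60 min compound preincubation at room temperature. Exchange times and RAS/SOS levels: 60 min for WT (1/40 nM), G12C triple mutant (3/40 nM), NRAS (1.25/40 nM); 90 min for G12V (1.25/160 nM). Four-parameter logistic fits on normalized effect.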"}, "[2]": {"biological_target": "KRAS-G12C (C51S/C80L/C118S) (Homo sapiens, UniProt P01116, C118S/C51S/C80L/G12C)", "sequence (P01116 with tags, fused parts or gaps isoform P01116-2 G12C/C51S/C80L/C118S)": "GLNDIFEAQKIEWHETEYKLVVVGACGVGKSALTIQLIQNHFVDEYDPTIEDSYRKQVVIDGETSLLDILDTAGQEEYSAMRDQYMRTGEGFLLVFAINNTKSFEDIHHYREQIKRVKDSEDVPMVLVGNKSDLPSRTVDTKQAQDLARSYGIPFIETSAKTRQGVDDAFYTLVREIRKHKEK", "assay": "SOS-catalyzed nucleotide exchange assay (Procedure A, TR-FRET), KRAS-G12C", "type": "biochemical", "details": "nucleotide exchange, Procedure A; read-out: KRAS G12C GNE IC50", "outline": "as §1"}, "[3]": {"biological_target": "KRAS-G12D (Homo sapiens, UniProt P01116, G12D)", "sequence (P01116 with tags, fused parts or gaps isoform P01116-2 G12D)": "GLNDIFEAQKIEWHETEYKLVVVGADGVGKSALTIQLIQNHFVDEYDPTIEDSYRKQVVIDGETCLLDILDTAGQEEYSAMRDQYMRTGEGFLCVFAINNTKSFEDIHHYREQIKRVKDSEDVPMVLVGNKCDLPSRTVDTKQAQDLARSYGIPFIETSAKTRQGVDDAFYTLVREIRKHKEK", "assay": "SOS-catalyzed nucleotide exchange assay (Procedure A, TR-FRET), KRAS-G12D", "type": "biochemical", "details": "nucleotide exchange, read-out: KRAS G12D GNE IC50", "outline": "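Signal ratio (520/495 nm, excitation 340 nm) reports Bodipy-GDP retention on biotinylated RAS after SOS-catalyzed exchange with 3 mM GTP. SOS was 40 nM, except 160 nM for G12V. Room-temperature exchange lasted 60 min (90 min for G12V), following a 60 min compound preincubation.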"}, "[4]": {"biological_target": "KRAS-G12V (Homo sapiens, UniProt P01116, G12V)", "sequence (P01116 with tags, fused parts or gaps isoform P01116-2 G12V)": "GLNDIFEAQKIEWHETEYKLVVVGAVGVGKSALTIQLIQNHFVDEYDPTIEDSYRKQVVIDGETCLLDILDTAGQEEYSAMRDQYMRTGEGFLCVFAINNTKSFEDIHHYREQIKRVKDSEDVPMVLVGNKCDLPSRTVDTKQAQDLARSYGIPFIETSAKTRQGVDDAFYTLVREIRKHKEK", "assay": "SOS-catalyzed nucleotide exchange assay (Procedure A, TR-FRET), KRAS-G12V", "type": "biochemical", "details": "nucleotide exchange, read-out: KRAS G12V GNE IC50", "outline": "as §1"}, "[5]": {"biological_target": "KRAS-G13D (Homo sapiens, UniProt P01116, G13D)", "sequence (P01116 with tags, fused parts or gaps isoform P01116-2 G13D)": "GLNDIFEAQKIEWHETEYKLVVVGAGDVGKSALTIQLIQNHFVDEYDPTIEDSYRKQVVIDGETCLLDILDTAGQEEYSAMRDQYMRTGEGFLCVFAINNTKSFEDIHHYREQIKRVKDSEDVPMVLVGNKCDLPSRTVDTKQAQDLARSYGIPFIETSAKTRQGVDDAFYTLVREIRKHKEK", "assay": "SOS-catalyzed nucleotide exchange assay (Procedure A, TR-FRET), KRAS-G13D", "type": "biochemical", "details": "nucleotide exchange, Procedure A; read-out: KRAS G13D GNE IC50"}, "[6]": {"test_system": "MKN-1 cells", "assay": "Cellular phospho-ERK assay, MKN-1 cells (amplified wild-type KRAS)", "type": "cell-based", "details": "Homo sapiens, amplified wild-type KRAS, 2 hours, read-out: MKN1 pERK IC50", "outline": "(§2)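 Cells were seeded overnight, then treated 2 h at 37° C with compound in a 10-point, 1:3 titration from 30 μM top final concentration. Lysates were assayed by AlphaLISA SureFire Ultra for p-ERK and total ERK. IC50 came from a 4-parameter logistic fit of the p-ERK/total ERK ratio.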"}, "[7]": {"test_system": "PANC08.13 cells", "assay": "Cellular phospho-ERK assay, PANC08.13 cells (homozygous KRAS-G12D)", "type": "cell-based", "details": "Homo sapiens, read-out: PANC-08.13 pERK IC50", "outline": "as §2"}, "[8]": {"test_system": "AsPC-1 cells", "assay": "Cellular phospho-ERK assay, AsPC-1 cells (homozygous KRAS-G12D)", "type": "cell-based", "details": "Homo sapiens, ASPC1, 2 h, KRAS-G12D, 2 hours, read-out: AsPC1 pERK IC50", "outline": "as §2"}, "[9]": {"test_system": "SW620 cells", "assay": "Cellular phospho-ERK assay, SW620 cells (homozygous KRAS-G12V)", "type": "cell-based", "details": "Homo sapiens, SW-620, KRAS-G12V, 2 hours, read-out: SW620 pERK IC50", "outline": "as §2"}}, "note": "Where two headings read alike, the source gives them in different places.", "data": [{"molecule": "Cc1cc2[nH]ncc2c(-c2nccc3c4c(N5CCC[C@@](C)(O)C5)nc(OC[C@@]56CCCN5C[C@H](F)C6)nc4n(C)c23)c1C(F)(F)F", "note": "(single isomer, unassigned) [Ex-5]", "values": [{"measurement": "IC50", "setting": "[1]", "value": 101, "unit": "nM"}, {"measurement": "IC50", "setting": "[2]", "value": 96.8, "unit": "nM"}, {"measurement": "IC50", "setting": "[3]", "value": 61.2, "unit": "nM"}, {"measurement": "IC50", "setting": "[4]", "value": 80.7, "unit": "nM"}, {"measurement": "IC50", "setting": "[5]", "value": 94.3, "unit": "nM"}, {"measurement": "IC50", "setting": "[6]", "value": 127, "unit": "nM"}, {"measurement": "IC50", "setting": "[7]; PANC-08-13, KRAS-G12D, 2 hours", "value": 188, "unit": "nM"}, {"measurement": "IC50", "setting": "[8]", "value": 694, "unit": "nM"}]}, {"molecule": "Cc1cc2[nH]nc(C#N)c2c(-c2nccc3c4c(N5CCOC[C@@](C)(O)C5)nc(OC[C@@]56CCCN5C[C@H](F)C6)nc4n(C)c23)c1C(F)F", "note": "(single isomer, unassigned) [Ex-9]", "values": [{"measurement": "IC50", "setting": "[1]", "value": 1350, "unit": "nM"}, {"measurement": "IC50", "setting": "[2]", "value": 566, "unit": "nM"}, {"measurement": "IC50", "setting": "[3]", "value": 616, "unit": "nM"}, {"measurement": "IC50", "setting": "[4]", "value": 575, "unit": "nM"}, {"measurement": "IC50", "setting": "[5]", "value": 560, "unit": "nM"}, {"measurement": "IC50", "setting": "[7]; PANC-08-13, KRAS-G12D, 2 hours", "value": 1690, "unit": "nM"}]}, {"molecule": "CCc1c(C)cc2[nH]ncc2c1-c1nccc2c1sc1nc(OC[C@@]34CCCN3C[C@H](F)C4)nc(N3CCOC[C@@](C)(O)C3)c12", "note": "[Ex-36, (6S)-4-(8-(5-ethyl-6-methyl-1H-indazol-4-yl)-2-(((2R,7aS)-2-fluorotetrahydro-1H-pyrrolizin-7a(5H)-yl)methoxy)pyrido[4′,3′:4,5]thieno[2,3-d]pyrimidin-4-yl)-6-methyl-1,4-oxazepan-6-ol]", "values": [{"measurement": "IC50", "setting": "[1]", "value": 330, "unit": "nM"}, {"measurement": "IC50", "setting": "[2]", "value": 125, "unit": "nM"}, {"measurement": "IC50", "setting": "[3]", "value": 164, "unit": "nM"}, {"measurement": "IC50", "setting": "[4]", "value": 533, "unit": "nM"}, {"measurement": "IC50", "setting": "[5]", "value": 150, "unit": "nM"}, {"measurement": "IC50", "setting": "[7]; PANC-08-13, KRAS-G12D, 2 hours", "value": 268, "unit": "nM"}]}, {"molecule": "Cc1cc2[nH]ncc2c(-c2nccc3c2sc2nc(OC[C@@]45CCCN4C[C@H](F)C5)nc(N4CCOC[C@@](C)(O)C4)c23)c1Cl", "note": "[Ex-32, (6S)-4-(8-(5-chloro-6-methyl-1H-indazol-4-yl)-2-(((2R,7aS)-2-fluorotetrahydro-1H-pyrrolizin-7a(5H)-yl)methoxy)pyrido[4′,3′:4,5]thieno[2,3-d]pyrimidin-4-yl)-6-methyl-1,4-oxazepan-6-ol]", "values": [{"measurement": "IC50", "setting": "[1]", "value": 202, "unit": "nM"}, {"measurement": "IC50", "setting": "[2]", "value": 91.7, "unit": "nM"}, {"measurement": "IC50", "setting": "[3]", "value": 101, "unit": "nM"}, {"measurement": "IC50", "setting": "[4]", "value": 212, "unit": "nM"}, {"measurement": "IC50", "setting": "[5]", "value": 111, "unit": "nM"}, {"measurement": "IC50", "setting": "[6]", "value": 274, "unit": "nM"}, {"measurement": "IC50", "setting": "[7]; PANC-08-13, KRAS-G12D, 2 hours", "value": 174, "unit": "nM"}, {"measurement": "IC50", "setting": "[9]", "value": 222, "unit": "nM"}]}, {"molecule": "C[C@@]1(O)COCCN(c2nc(OC[C@@]34CCCN3C[C@H](F)C4)nc3sc4c(-c5c(C(F)F)c(Cl)cc6[nH]ncc56)nccc4c23)C1", "note": "[Ex-133, (6S)-4-(8-(6-chloro-5-(difluoromethyl)-1H-indazol-4-yl)-2-(((2R,7aS)-2-fluoro-tetrahydro-1H-pyr-rolizin-7a(5H)-yl)-methoxy)pyrido [4′,3′:4,5]thieno [2,3-d]pyrimidin-4-yl)-6-methyl-1,4-oxazepan-6-ol]", "values": [{"measurement": "IC50", "setting": "[1]", "value": 250, "unit": "nM"}, {"measurement": "IC50", "setting": "[2]", "value": 47.1, "unit": "nM"}, {"measurement": "IC50", "setting": "[3]", "value": 120, "unit": "nM"}, {"measurement": "IC50", "setting": "[4]", "value": 130, "unit": "nM"}, {"measurement": "IC50", "setting": "[5]", "value": 110, "unit": "nM"}, {"measurement": "IC50", "setting": "[7]; PANC-08-13, 2 hours compound incubation", "value": 279, "unit": "nM"}]}, {"molecule": "C#Cc1c(C)cc2[nH]ncc2c1-c1nccc2c1sc1nc(OC[C@@]34CCCN3C[C@H](F)C4)nc(N3CCOC[C@@](C)(O)C3)c12", "note": "[Ex-33, (6S)-4-(8-(5-ethynyl-6-methyl-1H-indazol-4-yl)-2-(((2R,7aS)-2-fluorotetrahydro-1H-pyrrolizin-7a(5H)-yl)methoxy)pyrido[4′,3′:4,5]thieno[2,3-d]pyrimidin-4-yl)-6-methyl-1,4-oxazepan-6-ol]", "values": [{"measurement": "IC50", "setting": "[1]", "value": 35.7, "unit": "nM"}, {"measurement": "IC50", "setting": "[2]", "value": 35.3, "unit": "nM"}, {"measurement": "IC50", "setting": "[3]", "value": 13.6, "unit": "nM"}, {"measurement": "IC50", "setting": "[4]", "value": 28.7, "unit": "nM"}, {"measurement": "IC50", "setting": "[5]", "value": 19.7, "unit": "nM"}, {"measurement": "IC50", "setting": "[6]", "value": 52.9, "unit": "nM"}, {"measurement": "IC50", "setting": "[7]; PANC-08-13, KRAS-G12D, 2 hours", "value": 60.1, "unit": "nM"}, {"measurement": "IC50", "setting": "[9]", "value": 126, "unit": "nM"}]}, {"molecule": "Cc1cc2[nH]ncc2c(-c2nccc3c2sc2nc(OC[C@@]45CCCN4C[C@H](F)C5)nc(N4CCC[C@@](C)(O)C4)c23)c1C(F)(F)F", "note": "[Ex-128, (3R)-1-(2-(((2R, 7aS)-2-fluorotetra-hydro-1H-pyrrol-izin-7a(5H)-yl)meth-oxy)-8-(6-methyl-5-(trifluoromethyl)-1H-indazol-4-yl)-pyrido[4′,3′:4,5]thieno[2,3-d]pyr-imidin-4-yl)-3-methylpiperidin-3-ol]", "values": [{"measurement": "IC50", "setting": "[1]", "value": 246, "unit": "nM"}, {"measurement": "IC50", "setting": "[2]", "value": 102, "unit": "nM"}, {"measurement": "IC50", "setting": "[3]", "value": 96.9, "unit": "nM"}, {"measurement": "IC50", "setting": "[4]", "value": 143, "unit": "nM"}, {"measurement": "IC50", "setting": "[5]", "value": 204, "unit": "nM"}, {"measurement": "IC50", "setting": "[6]", "value": 214, "unit": "nM"}, {"measurement": "IC50", "setting": "[7]; PANC-08-13, KRAS-G12D, 2 hours", "value": 242, "unit": "nM"}, {"measurement": "IC50", "setting": "[8]", "value": 667, "unit": "nM"}]}]}
